In patent US11643439B2, “Multi-target compound with anticoagulation and antiplatelet activity, preparation method therefor, and use thereof” (SHAANXI MICOT TECHNOLOGY LIMITED COMPANY, priority 2015, dated 2023):
Marks after values point to notes of the source that are not given here.

Legend:
[1] = system: thrombin-induced pulmonary embolism; assay: Thrombin-induced pulmonary embolism in mice; type: in vivo, mouse; settings: thrombin 1500 u/kg; for Mortality rate: within 15 min
Experimental: Mice were randomly divided into 7 groups with 10 mice per group, in which group 1 was physiological saline group, group 2 was model control group, group 3 was positive control group of enoxaparin 0.5 mg/kg, group 4 was positive control group of bivalirudin 8 mg/kg, group 5 was low dose group of polypeptide 2 at 2.5 mg/kg, group 6 was medium dose group of polypeptide 2 at 5.0 mg/kg, and group 7 was high dose group of polypeptide 2 at 10.0 mg/kg. Except that physiological saline group and model control group were subjected to tail intravenous injection of 200 μl physiological saline, the other groups were given according to the doses, respectively. After 2 min, the mice in physiological saline group were administered with 100 μl physiological saline through tail intravenous injection and the other groups were each administered with 100 μl thrombin based on 1500 u/kg (80% to 90% of the lethal dose) through tail intravenous injection. The mice were observed after the administration for their death within 15 min.
(1) Recording mortality rate: the death status of mice with acute pulmonary embolism mice within 15 min was recorded and the survival time was recorded, to calculate the mortality rate;
(2) Determining lung coefficient: immediately after death, the bronchial and adipose tissues were dissected away from the lung tissue, and the lung tissue was washed with distilled water, and weighed for the lung weight after soaking up the water on the surface of the lung with a filter paper. The lung was taken out and weighed, to calculate the lung coefficient. Lung coefficient=Lung weight/Body weight×100%;
The lung was immediately dissected and taken out and weighed to determine the lung coefficient.

[2] = system: FeCl3-induced inferior vena cava thrombosis; assay: FeCl3-induced inferior vena cava thrombosis in rats; type: in vivo, rat
Experimental: (§1) 160 Rats were randomly divided into groups, 5 to 10 rats per group.
(§2) According to the body weight in kilograms of the rats, the first dose of a drug was dissolved in 2 mL of physiological saline for single bolus injection. The maintaining dose of drug was dissolved in 9 ml of physiological saline, and placed in a double-channel micro-injection pump, which was dripped off within 90 minutes at a dripping speed of 0.1 ml/min. The sham operation group was administered with the same volume of physiological saline.
(§3) The rats were fasted with free access to water overnight before the experiment.
15 minutes later, the filter paper was removed. And then, after observation for 45 minutes, the blood vessels and local tissues were rinsed with warm physiological saline, and the covered blood vessels were cut off. The thrombus which attached to the blood vessel walls was peeled off to be weighed on a tin foil for its wet weight, and then weighed overnight at room temperature for its dry weight. The administration was continued until the completion of the experiment.
After the experiment was completed, the segment of the blood vessels in which there had been thrombus formation was cut off, weighed for the wet weight, and then weighed overnight at room temperature for the dry weight of the thrombus. Thrombosis inhibitory rate was calculated.

[3] = system: blood coagulation function; assay: APTT in rats, intravenous maintenance administration; type: in vivo, rat
Experimental: as §1, §2, §3
(§4) The blood samples were taken before administration, administration for 60 minutes, and before termination of administration, respectively, to determine their activated partial thromboplastin time (APTT) and prothrombin time (PT). The blood samples were centrifuged at 3510 rpm for 8 minutes to obtain platelet poor plasma (PPP). Reagent reconstruction and preservation were performed according to the operation requirements of the kit. Immediately after each blood sample was placed into a test cup and then PT and APTT reagents were added, the test was started. After the test was completed, results were recorded.
(§5) 5.1 Determination of blood coagulation function: The blood samples were taken 0 min before administration, administration for 60 minutes, and termination of administration, respectively, and then determined using a platelet-aggregation coagulation factor analyzer for the blood coagulation functions (PT. APTT) and ACT.

[4] = system: blood coagulation function; assay: PT in rats, intravenous maintenance administration; type: in vivo, rat
Experimental: as §1, §2, §3, §4, §5

[5] = system: blood coagulation function; assay: APTT in rabbits, single intravenous administration; type: in vivo, rabbit
Experimental: 1. Grouping and administration: 48 Rabbits were randomly divided into 6 groups, 8 rabbits per group. 1) Sham operation group (NS): Intravenous injection of the same volume of physiological saline; 2) positive control bivalirudin group (6 mg/kg); 3) positive control enoxaparin group (200 U/kg); 4) Low dose group of polypeptide 2 (3.0 mg/kg); 5) Medium dose group of polypeptide 2 (6.0 mg/kg); 6) High dose group of polypeptide 2 (12.0 mg/kg). Polypeptide 2 was administered by single intravenous administration. According to the body weight in kilograms of the rabbits, the sample was dissolved in 2 mL of physiological saline for single bolus injection. The sham operation group was administered with the same volume of physiological saline.
3.2 Determination of blood coagulation function: Blood samples were taken and the blood function (PT, TT, APTT) was determined at 0 min before administration, at points of 5 min and 15 min after administration, using a platelet-aggregation coagulation factor analyzer. Blood samples were centrifuged at 3510 rpm for 8 min to obtain platelet poor plasma (PPP). Reagent reconstruction and preservation were performed according to the operation requirements of the kit. Immediately after each blood sample was placed into a test cup and then added with PT. TT and APTT reagents, the test was started. After the test was completed, results were recorded.

[6] = iv 0.041 + 0.125 (mg/kg + mg/kg/h)
[7] = iv 0.125 + 0.375 (mg/kg + mg/kg/h)
[8] = iv 0.25 + 0.75 (mg/kg + mg/kg/h)
[9] = iv 0.5 + 1.25 (mg/kg + mg/kg/h)
[10] = iv 1.5 + 3.75 (mg/kg + mg/kg/h)

D-Phe Pro Arg Pro Gly Gly Gly Gly Asn Gly Asp Phe Glu Glu Ile Pro Glu Glu Tyr Leu Glu Ala Ala Ala Lys Cys Har Gly Asp Trp Pro Cys [Polypeptide 2]
Lung coefficient ([1]; tail iv 2.5 mg/kg): 0.94 ± 0.16 g/100 g
Number of platelets ([1]; tail iv 2.5 mg/kg): 165.33 ± 20.2 ×10^9
Mortality rate ([1]; tail iv 2.5 mg/kg, 2.5 mg/kg): 60 ^ %
Mortality rate ([1]; tail iv 2.5 mg/kg, listed as polypeptide 2, 2.5 mg/kg): 60%
Lung coefficient ([1]; tail iv 5.0 mg/kg): 1.08 ± 0.27 g/100 g
Number of platelets ([1]; tail iv 5.0 mg/kg): 207.83 ± 33.09 ×10^9
Mortality rate ([1]; tail iv 5.0 mg/kg, 5 mg/kg): 30**^# %
Mortality rate ([1]; tail iv 5.0 mg/kg, listed as polypeptide 2, 5 mg/kg): 30%
Lung coefficient ([1]; tail iv 10.0 mg/kg): 0.83 ± 0.14 g/100 g
Number of platelets ([1]; tail iv 10.0 mg/kg): 529.57 ± 104.28 ×10^9
Mortality rate ([1]; tail iv 10.0 mg/kg, 10 mg/kg): 10**^# %
Mortality rate ([1]; tail iv 10.0 mg/kg, listed as polypeptide 2, 10 mg/kg): 10%
Inferior vena cava thrombosis Inhibition percentage [2, 6]: 10.38%
Inferior vena cava thrombosis Thrombus weight [2, 6]: 20.20 ± 10.00 mg
Inferior vena cava thrombosis Inhibition percentage [2, 7]: 27.99%
Inferior vena cava thrombosis Thrombus weight [2, 7]: 16.23 ± 6.76 mg
Inferior vena cava thrombosis Inhibition percentage [2, 8]: 36.85%
Inferior vena cava thrombosis Thrombus weight [2, 8]: 14.23 ± 4.82 mg
Inferior vena cava thrombosis Inhibition percentage [2, 9]: 58.96%
Inferior vena cava thrombosis Thrombus weight [2, 9]: 9.25 ± 4.86 mg
Inferior vena cava thrombosis Inhibition percentage ([2]; iv 1 + 2.5 (mg/kg + mg/kg/h)): 56.03%
Inferior vena cava thrombosis Thrombus weight ([2]; iv 1 + 2.5 (mg/kg + mg/kg/h)): 9.91 ± 6.20 mg
Inferior vena cava thrombosis Inhibition percentage [2, 10]: 68.37%
Inferior vena cava thrombosis Thrombus weight [2, 10]: 7.13 ± 3.46 mg
APTT Before administration [3, 6]: 24.54 ± 5.09
APTT Fold of change [3, 6]: 1.65 ± 0.84
APTT administration for 60 minutes [3, 6]: 37.29 ± 10.59
APTT Before administration [3, 7]: 24.05 ± 5.44
APTT Fold of change [3, 7]: 1.94 ± 0.68
APTT administration for 60 minutes [3, 7]: 44.55 ± 12.74
APTT Before administration [3, 8]: 24.98 ± 5.11
APTT Fold of change [3, 8]: 2.22 ± 1.12
APTT administration for 60 minutes [3, 8]: 53.13 ± 22.57
APTT Before administration [3, 9]: 22.03 ± 4.70
APTT Fold of change [3, 9]: 2.49 ± 1.38
APTT administration for 60 minutes [3, 9]: 52.29 ± 25.87
APTT Before administration ([3]; iv 1 + 2.5 (mg/kg + mg/kg/h)): 23.98 ± 6.83
APTT Fold of change ([3]; iv 1 + 2.5 (mg/kg + mg/kg/h)): 5.01 ± 3.00
APTT administration for 60 minutes ([3]; iv 1 + 2.5 (mg/kg + mg/kg/h)): 108.52 ± 56.27
APTT Before administration [3, 10]: 23.94 ± 4.49
APTT Fold of change [3, 10]: 3.19 ± 2.02
APTT administration for 60 minutes [3, 10]: 74.62 ± 49.41
PT Before administration [4, 6]: 10.74 ± 3.97
PT Fold of change [4, 6]: 1.95 ± 1.27
PT administration for 60 minutes [4, 6]: 18.95 ± 8.65
PT Before administration [4, 7]: 11.21 ± 1.62
PT Fold of change [4, 7]: 1.70 ± 0.34
PT administration for 60 minutes [4, 7]: 19.00 ± 4.39
PT Before administration [4, 8]: 11.19 ± 1.06
PT Fold of change [4, 8]: 1.87 ± 0.50
PT administration for 60 minutes [4, 8]: 20.82 ± 5.66
PT Before administration [4, 9]: 10.58 ± 1.48
PT Fold of change [4, 9]: 2.53 ± 0.73
PT Before administration ([4]; iv 1 + 2.5 (mg/kg + mg/kg/h)): 10.53 ± 1.29
PT Fold of change ([4]; iv 1 + 2.5 (mg/kg + mg/kg/h)): 5.57 ± 2.74
PT administration for 60 minutes ([4]; iv 1 + 2.5 (mg/kg + mg/kg/h)): 56.65 ± 23.16
PT Before administration [4, 10]: 11.98 ± 1.02
PT Fold of change [4, 10]: 3.91 ± 1.89
PT administration for 60 minutes [4, 10]: 46.64 ± 23.46
APTT fold of prolongation ([5]; single iv 3.0 mg/kg, Administration 5 min): 1.2 ± 0.2
APTT fold of prolongation ([5]; single iv 3.0 mg/kg, Administration 15 min): 1.0 ± 0.1
APTT ([5]; single iv 3.0 mg/kg, Administration for 5 min): 24.4 ± 4.2*^¥ s
APTT ([5]; single iv 3.0 mg/kg, Administration for 15 min): 20.0 ± 3.1 s
APTT ([5]; single iv 3.0 mg/kg, Before administration): 20.6 ± 1.2 s
APTT fold of prolongation ([5]; single iv 6.0 mg/kg, Administration 5 min): 2.1 ± 0.6
APTT fold of prolongation ([5]; single iv 6.0 mg/kg, Administration 15 min): 1.5 ± 0.4
APTT ([5]; single iv 6.0 mg/kg, Administration for 5 min): 50.5 ± 3.6*^& s
APTT ([5]; single iv 6.0 mg/kg, Administration for 15 min): 34.9 ± 2.7*^& s
APTT ([5]; single iv 6.0 mg/kg, Before administration): 24.1 ± 1.0 s
APTT fold of prolongation ([5]; single iv 12.0 mg/kg, Administration 5 min): 2.3 ± 0.6
APTT fold of prolongation ([5]; single iv 12.0 mg/kg, Administration 15 min): 1.6 ± 0.5
APTT ([5]; single iv 12.0 mg/kg, Administration for 5 min): 54.4 ± 3.6*^& s
APTT ([5]; single iv 12.0 mg/kg, Administration for 15 min): 37.0 ± 2.7*^& s
APTT ([5]; single iv 12.0 mg/kg, Before administration): 23.3 ± 1.0 s
